Experimental data from paper PMC6539495, “Anti-Cancer Activity of Novel Dihydrotestosterone-Derived Ring A-Condensed Pyrazoles on Androgen Non-Responsive Prostate Cancer Cell Lines” (International Journal of Molecular Sciences, 2019).

Experiments:
MRC-5 cells = experiment: MTT cell viability assay on non-cancerous MRC-5 fibroblasts; format: cell-based; details: 72 hours, MTT
Experimental: (§1) HeLa, MCF-7 and MDA-MB-231 cells were obtained from Sigma-Aldrich and maintained as reported previously. MRC-5, PC-3, DU 145 cells were purchased from American Type Culture Collection (ATCC, Manassas, VA, USA). PC-3 and DU 145 were maintained in RPMI medium (Sigma-Aldrich) whereas MRC-5 cells were maintained in DMEM medium (Sigma-Aldrich). All media were complemented with 10% Fetal bovine serum (FBS, Sigma-Aldrich) 2 mM L-glutamine, 0.01% streptomycin and 0.005% ampicillin (Sigma-Aldrich). Cells were cultured under standard conditions in a 37 °C incubator containing 5% CO2 in 95% humidity.
(§2) Each test compound was dissolved in cell culture grade DMSO (Molar Chemicals, Halásztelek, Hungary) in a final concentration of […]. Antiproliferative action of the synthesized steroids was investigated by MTT assay. An amount of 5000 cells/well were seeded into 96 well plates. Twenty-four hours post seeding, all cell lines were treated with each compound in 10 and 30 μM concentrations for 72 hours. […] After 72 hours, cells were washed with PBS and incubated with culture medium containing 0.5 mg/mL MTT (3-(4, 5-dimethylthiazolyl-2)-2,5-diphenyltetrazolium bromide) reagent (SERVA, GmbH, Heidelberg, Germany) for an hour at 37 °C. Formazan crystals were solubilized in DMSO and extinction was measured at 570 nm using a Synergy HTX plate reader (BioTech-Hungary, Budapest, Hungary). MTT assays were performed at least three times using four independent biological replicates. Data were normalized to solvent controls and the graphical representation of the obtained data as well as the calculation of IC50 values were carried out by GraphPad Prism 7 software (GraphPad Software; San Diego, CA, USA).

DU 145 cells = experiment: MTT cell viability assay on DU 145 prostate cancer cells; format: cell-based, human; details: 72 hours
Experimental: as §1, §2

PC-3 cells = experiment: MTT cell viability assay on PC-3 prostate cancer cells; format: cell-based, human; details: for Mean values (%) of primary growth inhibitory screen (viability in %), PC-3: 72 hours, MTT; for antiproliferative potency against PC-3 prostate cancer cells compared to MRC-5 non-cancerous fibroblasts: primary screen
Experimental: as §1, §2

HeLa cells = experiment: MTT cell viability assay on HeLa cervical cancer cells; format: cell-based, human; details: 72 hours
Experimental: as §1, §2

MCF-7 cells = experiment: MTT cell viability assay on MCF-7 breast cancer cells; format: cell-based, human; details: 72 hours
Experimental: as §1, §2

MDA-MB-231 cells = experiment: MTT cell viability assay on MDA-MB-231 breast cancer cells; format: cell-based, human; details: 72 hours
Experimental: as §1, §2

Cc1ccccc1-n1nc2c(c1C)C[C@@]1(C)[C@@H](CC[C@@H]3[C@@H]1CC[C@]1(C)[C@@H](O)CC[C@@H]31)C2 [4b, 17β-Hydroxy-1′-(2″-tolyl)-5′-methylpyrazolo[3′,4′:3,2]-5α-androstane]
Mean values (%) of primary growth inhibitory screen (viability in %), MRC-5 (MRC-5 cells; 10 µM): 72.9%
Mean values (%) of primary growth inhibitory screen (viability in %), MRC-5 (MRC-5 cells; 30 µM): 64.2%
Mean values (%) of primary growth inhibitory screen (viability in %), DU 145 (DU 145 cells; 10 µM): 61.1%
Mean values (%) of primary growth inhibitory screen (viability in %), DU 145 (DU 145 cells; 30 µM): 48.3%
Mean values (%) of primary growth inhibitory screen (viability in %), PC-3 (PC-3 cells; 10 µM): 67.5%
antiproliferative potency against PC-3 prostate cancer cells compared to MRC-5 non-cancerous fibroblasts (PC-3 cells; 10 µM): significantly higher
Mean values (%) of primary growth inhibitory screen (viability in %), PC-3 (PC-3 cells; 30 µM): 54.7%
Mean values (%) of primary growth inhibitory screen (viability in %), HeLa (HeLa cells; 10 µM): 36.0%
Mean values (%) of primary growth inhibitory screen (viability in %), HeLa (HeLa cells; 30 µM): 34.1%
Mean values (%) of primary growth inhibitory screen (viability in %), MCF-7 (MCF-7 cells; 10 µM): 39.1%
Mean values (%) of primary growth inhibitory screen (viability in %), MCF-7 (MCF-7 cells; 30 µM): 32.4%
Mean values (%) of primary growth inhibitory screen (viability in %), MDA-MB-231 (MDA-MB-231 cells; 10 µM): 69.0%
Mean values (%) of primary growth inhibitory screen (viability in %), MDA-MB-231 (MDA-MB-231 cells; 30 µM): 64.0%

Cc1ccc(-n2nc3c(c2C)CC2(C)C(CCC4C5CCC(O)C5(C)CCC42)C3)cc1 (stereo not drawn) [4c, 17β-Hydroxy-1′-(4″-tolyl)-5′-methylpyrazolo[3′,4′:3,2]-5α-androstane]
Mean values (%) of primary growth inhibitory screen (viability in %), MRC-5 (MRC-5 cells; 10 µM): 75.0%
Mean values (%) of primary growth inhibitory screen (viability in %), MRC-5 (MRC-5 cells; 30 µM): 37.5%
Mean values (%) of primary growth inhibitory screen (viability in %), DU 145 (DU 145 cells; 10 µM): 87.3%
Mean values (%) of primary growth inhibitory screen (viability in %), DU 145 (DU 145 cells; 30 µM): 5.1%
Mean values (%) of primary growth inhibitory screen (viability in %), PC-3 (PC-3 cells; 10 µM): 44.0%
antiproliferative potency against PC-3 prostate cancer cells compared to MRC-5 non-cancerous fibroblasts (PC-3 cells; 10 µM): significantly higher
Mean values (%) of primary growth inhibitory screen (viability in %), PC-3 (PC-3 cells; 30 µM): 4.2%
Mean values (%) of primary growth inhibitory screen (viability in %), HeLa (HeLa cells; 10 µM): 56.1%
Mean values (%) of primary growth inhibitory screen (viability in %), HeLa (HeLa cells; 30 µM): 8.0%
Mean values (%) of primary growth inhibitory screen (viability in %), MCF-7 (MCF-7 cells; 10 µM): 49.5%
Mean values (%) of primary growth inhibitory screen (viability in %), MCF-7 (MCF-7 cells; 30 µM): 5.4%
Mean values (%) of primary growth inhibitory screen (viability in %), MDA-MB-231 (MDA-MB-231 cells; 10 µM): 81.7%
Mean values (%) of primary growth inhibitory screen (viability in %), MDA-MB-231 (MDA-MB-231 cells; 30 µM): 12.0%

Cc1ccc(-n2nc3c(c2C)C[C@@]2(C)[C@@H](CC[C@@H]4[C@@H]2CC[C@]2(C)[C@@H](O)CC[C@@H]42)C3)c(C)c1 [4d, 17β-Hydroxy-1′-(2″,4″-dimethylphenyl)-5′-methylpyrazolo[3′,4′:3,2]-5α-androstane]
Mean values (%) of primary growth inhibitory screen (viability in %), MRC-5 (MRC-5 cells; 10 µM): 78.9%
Mean values (%) of primary growth inhibitory screen (viability in %), MRC-5 (MRC-5 cells; 30 µM): 0.8%
Mean values (%) of primary growth inhibitory screen (viability in %), DU 145 (DU 145 cells; 10 µM): 70.2%
Mean values (%) of primary growth inhibitory screen (viability in %), DU 145 (DU 145 cells; 30 µM): 2.3%
Mean values (%) of primary growth inhibitory screen (viability in %), PC-3 (PC-3 cells; 10 µM): 53.4%
Mean values (%) of primary growth inhibitory screen (viability in %), PC-3 (PC-3 cells; 30 µM): 3.6%
Mean values (%) of primary growth inhibitory screen (viability in %), HeLa (HeLa cells; 10 µM): 65.6%
Mean values (%) of primary growth inhibitory screen (viability in %), HeLa (HeLa cells; 30 µM): 56.1%
Mean values (%) of primary growth inhibitory screen (viability in %), MCF-7 (MCF-7 cells; 10 µM): 74.5%
Mean values (%) of primary growth inhibitory screen (viability in %), MCF-7 (MCF-7 cells; 30 µM): 10.5%
Mean values (%) of primary growth inhibitory screen (viability in %), MDA-MB-231 (MDA-MB-231 cells; 10 µM): 92.0%
Mean values (%) of primary growth inhibitory screen (viability in %), MDA-MB-231 (MDA-MB-231 cells; 30 µM): 47.9%
